Reference: ChEMBL document CHEMBL6182942, “Discovery of a Selective, Novel TGF-βR1 Inhibitor GFH018 for the Treatment of Solid Tumors” (J Med Chem, 2025)
pIC50: −log10 of the molar value. In brackets after ≈: the same amount, converted by molar mass. Activity calls are given as the source filed them. The calls are words filed in the database; no cut-off is given here.

Key:
NIH3T3 = assay: Antiproliferative activity against mouse NIH/3T3 cells by celltitter-glo assay; assay type: functional, cell-based
[1] = Metabolic stability in mouse liver microsomes assessed as parent compound remaining at 1 uM preincubated for 5 mins followed by NADPH addition by LC-MS/MS analysis; assay type: ADME, Microsome; details: read-out: Stability
[2] = Volume of distribution at steady state in CD-1 mouse at 1 mg/kg, iv by LC-MS/MS analysis; assay type: ADME, organism-based; details: in vivo, read-out: Vdss
[3] = Half life in CD-1 mouse at 5 mg/kg, po via gavage by LC-MS/MS analysis; assay type: ADME, organism-based; details: in vivo
[4] = Oral bioavailability in CD-1 mouse at 5 mg/kg via gavage by LC-MS/MS analysis; assay type: ADME, organism-based; details: in vivo
[5] = Half life in CD-1 mouse at 75 mg/kg, po via gavage by LC-MS/MS analysis; assay type: ADME, organism-based; details: in vivo
[6] = Cmax in CD-1 mouse at 75 mg/kg, po via gavage by LC-MS/MS analysis; assay type: ADME, organism-based; details: in vivo
[7] = AUC (0 to last) in CD-1 mouse at 75 mg/kg, po via gavage by LC-MS/MS analysis; assay type: ADME, organism-based; details: in vivo
[8] = Kinetic solubility of the compound in pH 7.4 aqueous buffer; assay type: physicochemical; details: read-out: Kinetic_solubility
[9] = Lipophilicity, log D of the compound; assay type: physicochemical; details: octanol/water
[10] = Intrinsic clearance in mouse hepatocytes at 1 uM measured after 90 mins by LC-MS/MS analysis; assay type: ADME, cell-based, Hepatocyte; details: read-out: CLH
[11] = Intrinsic clearance in rat hepatocytes at 1 uM measured after 90 mins by LC-MS/MS analysis; assay type: ADME, cell-based, Hepatocyte; details: read-out: CLH
[12] = Intrinsic clearance in cynomolgus monkey hepatocytes at 1 uM measured after 90 mins by LC-MS/MS analysis; assay type: ADME, cell-based, Macaca fascicularis, Hepatocyte; details: read-out: CLH
[13] = Protein binding in mouse plasma at 0.2 to 10 uM measured after 4 hrs by equilibrium dialysis based LC-MS/MS analysis; assay type: ADME, cell-free; details: dose 0.2-10 µM, read-out: PPB (converted)
[14] = Protein binding in Sprague-Dawley rat plasma at 0.2 to 10 uM measured after 4 hrs by equilibrium dialysis based LC-MS/MS analysis; assay type: ADME, cell-free; details: dose 0.2-10 µM, read-out: PPB (converted)
[15] = Protein binding in cynomolgus monkey plasma at 0.2 to 10 uM measured after 4 hrs by equilibrium dialysis based LC-MS/MS analysis; assay type: ADME, cell-free, Macaca fascicularis; details: dose 0.2-10 µM, read-out: PPB (converted)
Cytochrome P450 2B6 = Cytochrome P450 2B6 (Homo sapiens, UniProt P20813); assay: Inhibition of CYP2B6 in human liver microsomes using bupropion as substrate preincubated for 10 mins followed by NADPH regeneration system addition and measured after 10 mins by LC-MS/MS analysis; assay type: ADME, Microsome
Cytochrome P450 2B6, sequence (P20813 whole entry): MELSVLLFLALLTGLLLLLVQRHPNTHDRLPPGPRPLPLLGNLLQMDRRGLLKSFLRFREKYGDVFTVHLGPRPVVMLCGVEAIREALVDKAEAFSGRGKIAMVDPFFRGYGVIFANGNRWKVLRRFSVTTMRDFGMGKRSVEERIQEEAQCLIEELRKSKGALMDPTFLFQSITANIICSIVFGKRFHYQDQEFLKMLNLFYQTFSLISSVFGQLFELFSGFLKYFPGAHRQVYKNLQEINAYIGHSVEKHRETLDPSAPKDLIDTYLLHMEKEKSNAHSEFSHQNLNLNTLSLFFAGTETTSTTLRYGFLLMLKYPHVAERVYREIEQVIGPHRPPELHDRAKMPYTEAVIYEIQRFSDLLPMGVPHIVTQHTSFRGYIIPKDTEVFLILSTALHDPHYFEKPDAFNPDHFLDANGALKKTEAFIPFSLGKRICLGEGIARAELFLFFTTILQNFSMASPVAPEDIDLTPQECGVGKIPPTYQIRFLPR

Cytochrome P450 2C9 = Cytochrome P450 2C9 (Homo sapiens, UniProt P11712); assay: Inhibition of CYP2C9 in human liver microsomes using diclofenac as substrate preincubated for 10 mins followed by NADPH regeneration system addition and measured after 10 mins by LC-MS/MS analysis; assay type: ADME, Microsome
Cytochrome P450 2C9, sequence (P11712 whole entry): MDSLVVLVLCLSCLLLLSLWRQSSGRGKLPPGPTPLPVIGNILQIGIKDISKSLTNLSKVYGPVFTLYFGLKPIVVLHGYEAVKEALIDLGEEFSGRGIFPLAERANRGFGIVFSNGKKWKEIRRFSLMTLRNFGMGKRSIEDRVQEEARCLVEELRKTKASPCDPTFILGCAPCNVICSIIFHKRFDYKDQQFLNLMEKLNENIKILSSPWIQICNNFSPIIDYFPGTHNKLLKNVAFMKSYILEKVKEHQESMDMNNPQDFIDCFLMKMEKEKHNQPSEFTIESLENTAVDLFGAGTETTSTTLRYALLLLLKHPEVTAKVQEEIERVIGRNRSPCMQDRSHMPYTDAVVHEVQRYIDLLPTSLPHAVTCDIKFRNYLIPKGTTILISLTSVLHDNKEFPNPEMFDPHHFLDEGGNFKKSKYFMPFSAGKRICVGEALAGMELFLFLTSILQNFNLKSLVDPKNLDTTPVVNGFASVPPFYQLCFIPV

Cytochrome P450 2C19 = Cytochrome P450 2C19 (Homo sapiens, UniProt P33261); assay: Inhibition of CYP2C19 in human liver microsomes using (S)-mephenytoin as substrate preincubated for 10 mins followed by NADPH regeneration system addition and measured after 20 mins by LC-MS/MS analysis; assay type: ADME, Microsome
Cytochrome P450 2C19, sequence (P33261 whole entry): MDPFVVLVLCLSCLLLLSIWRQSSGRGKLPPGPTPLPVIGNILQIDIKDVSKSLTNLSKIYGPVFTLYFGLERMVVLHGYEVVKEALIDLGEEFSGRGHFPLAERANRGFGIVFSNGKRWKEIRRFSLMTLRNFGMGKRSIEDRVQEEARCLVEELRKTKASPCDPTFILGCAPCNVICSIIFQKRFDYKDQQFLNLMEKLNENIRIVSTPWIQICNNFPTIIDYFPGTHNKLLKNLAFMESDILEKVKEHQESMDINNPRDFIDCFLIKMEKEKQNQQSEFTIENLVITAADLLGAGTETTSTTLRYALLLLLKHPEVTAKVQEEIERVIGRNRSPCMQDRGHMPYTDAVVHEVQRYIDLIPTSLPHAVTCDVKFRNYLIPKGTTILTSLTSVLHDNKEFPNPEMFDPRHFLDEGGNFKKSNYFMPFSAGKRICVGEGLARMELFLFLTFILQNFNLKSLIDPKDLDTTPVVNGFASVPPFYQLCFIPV

Cytochrome P450 3A4 = Cytochrome P450 3A4 (Homo sapiens, UniProt P08684); assay: Inhibition of CYP3A4 in human liver microsomes using midazolam as substrate preincubated for 10 mins followed by NADPH regeneration system addition and measured after 3 mins by LC-MS/MS analysis; assay type: ADME, Microsome
Cytochrome P450 3A4, sequence (P08684 whole entry): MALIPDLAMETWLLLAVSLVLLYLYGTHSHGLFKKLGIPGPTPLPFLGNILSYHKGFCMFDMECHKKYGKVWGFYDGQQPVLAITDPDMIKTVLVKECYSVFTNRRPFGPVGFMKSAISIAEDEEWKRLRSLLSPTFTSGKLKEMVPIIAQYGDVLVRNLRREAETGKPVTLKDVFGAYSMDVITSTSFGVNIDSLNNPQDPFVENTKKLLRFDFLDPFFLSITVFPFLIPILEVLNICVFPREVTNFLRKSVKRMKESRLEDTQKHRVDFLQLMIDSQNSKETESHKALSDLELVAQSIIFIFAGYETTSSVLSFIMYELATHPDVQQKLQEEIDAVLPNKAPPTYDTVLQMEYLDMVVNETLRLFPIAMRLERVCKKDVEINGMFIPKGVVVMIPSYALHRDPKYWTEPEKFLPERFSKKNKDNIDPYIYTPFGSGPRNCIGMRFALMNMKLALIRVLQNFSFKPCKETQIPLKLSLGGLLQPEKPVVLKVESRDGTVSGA

[16] = Half life in Sprague-Dawley rat at 1 mg/kg, iv by LC-MS/MS analysis; assay type: ADME, organism-based; details: in vivo
[17] = Half life in Sprague-Dawley rat at 30 mg/kg, po administered via gavage by LC-MS/MS analysis; assay type: ADME, organism-based; details: in vivo
[18] = Cmax in Sprague-Dawley rat at 30 mg/kg, po administered via gavage by LC-MS/MS analysis; assay type: ADME, organism-based; details: in vivo
[19] = AUC (0 to last) in Sprague-Dawley rat at 30 mg/kg, po administered via gavage by LC-MS/MS analysis; assay type: ADME, organism-based; details: in vivo
[20] = Clearance in Beagle dog at 1 mg/kg, iv by LC-MS/MS analysis; assay type: ADME, organism-based, Canis lupus familiaris; details: in vivo
H22 [21] = assay: Antitumor activity against mouse H22 cells implanted in po dosed BALB/c mouse assessed as tumor growth inhibition administered twice daily for 11 days and measured 3 times per week during compound dosing; assay type: functional, organism-based; details: dose lower […], dose upper 50.0 mg/kg, time 11.0 day
H22 [22] = assay: Antitumor activity against mouse H22 cells implanted in BALB/c mouse assessed as tumor growth inhibition at 50 mg/kg, po administered twice daily for 11 days and measured 3 times per week during compound dosing relative to control; assay type: functional; details: H22, 264 h, time 11 day, read-out: TGI
[23] = Time at which unbound plasma concentration required to show cellular IC50 for inhibition of smad phosphorylation in mouse H22 cell implanted BALB/c mouse at 15 mg/kg, po administered twice daily for 11 days; assay type: functional; details: time 11 day
[24] = Time at which unbound plasma concentration required to show cellular IC50 for inhibition of smad phosphorylation in mouse H22 cell implanted BALB/c mouse at 50 mg/kg, po administered twice daily for 11 days; assay type: functional; details: time 11 day
[25] = Toxicity in mouse CT26 cell implanted BALB/c mouse assessed as change in body weight at 50 mg/kg, po administered twice daily; assay type: organism-based; details: in vivo
4T1-Luc [26] = assay: Antimetastatic activity against mouse 4T1-Luc cells implanted in BALB/c mouse assessed as reduction in metastatic rate in liver at 100 mg/kg, po administered daily for 32 days and measured on day 30 to 35 by IVIS fluorescence analysis; assay type: functional, organism-based; details: time 35.0 day
4T1-Luc [27] = assay: Antimetastatic activity against mouse 4T1-Luc cells implanted in BALB/c mouse assessed as reduction in metastatic rate in kidney at 100 mg/kg, po administered daily for 32 days and measured on day 30 to 35 by IVIS fluorescence analysis; assay type: functional, organism-based; details: time 35.0 day
4T1-Luc [28] = assay: Antimetastatic activity against mouse 4T1-Luc cells implanted in BALB/c mouse assessed as reduction in metastatic rate in intestine at 100 mg/kg, po administered daily for 32 days and measured on day 30 to 35 by IVIS fluorescence analysis; assay type: functional, organism-based; details: time 35.0 day
4T1-Luc [29] = assay: Antimetastatic activity against mouse 4T1-Luc cells implanted in BALB/c mouse assessed as reduction in metastatic rate in forelimb at 100 mg/kg, po administered daily for 32 days and measured on day 30 to 35 by IVIS fluorescence analysis; assay type: functional, organism-based; details: time 35.0 day
[30] = Drug metabolism in human liver microsomes; assay type: ADME, Microsome
[31] = Drug metabolism in mouse liver microsomes; assay type: ADME, Microsome
[32] = Drug metabolism in monkey liver microsomes; assay type: ADME, Macaca mulatta, Microsome; details: rhesus monkey
[33] = Drug metabolism in human hepatocytes; assay type: ADME, cell-based, Hepatocyte
[34] = Drug metabolism in mouse hepatocytes; assay type: ADME, cell-based, Hepatocyte
[35] = Drug metabolism in dog hepatocytes; assay type: ADME, cell-based, Canis lupus familiaris, Hepatocyte
[36] = Drug metabolism in monkey hepatocytes; assay type: ADME, cell-based, Macaca mulatta, Hepatocyte; details: rhesus monkey
[37] = target: Tyrosine-protein kinase Lck (Homo sapiens) (UniProt P06239); assay: Inhibition of LCK (unknown origin) assessed as residual activity at 1 uM relative to control
Tyrosine-protein kinase Lck (Homo sapiens), sequence (P06239 2-509 limits assumed): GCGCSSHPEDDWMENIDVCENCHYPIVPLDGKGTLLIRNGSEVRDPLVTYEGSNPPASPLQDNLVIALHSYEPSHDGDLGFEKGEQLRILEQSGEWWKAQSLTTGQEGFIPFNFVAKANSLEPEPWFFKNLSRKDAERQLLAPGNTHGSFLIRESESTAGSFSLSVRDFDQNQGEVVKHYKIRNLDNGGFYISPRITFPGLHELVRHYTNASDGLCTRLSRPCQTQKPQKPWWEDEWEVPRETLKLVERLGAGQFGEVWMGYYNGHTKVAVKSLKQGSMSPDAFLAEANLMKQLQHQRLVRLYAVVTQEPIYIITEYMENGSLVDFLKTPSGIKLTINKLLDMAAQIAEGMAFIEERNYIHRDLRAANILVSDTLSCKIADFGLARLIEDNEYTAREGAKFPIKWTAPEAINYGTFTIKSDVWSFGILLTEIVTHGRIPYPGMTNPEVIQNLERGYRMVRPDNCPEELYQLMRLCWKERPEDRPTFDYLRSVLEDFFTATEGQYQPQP

[38] = Mutagenicity in Salmonella typhimurium TA98 by Ames test; assay type: toxicity; details: salmonella enterica subsp. enterica serovar typhimurium

`Cc1cccc(-c2nn3c(c2-c2ccc4ncnn4c2/C=C/C(N)=O)CCC3)n1` showed a pIC50 (NIH3T3) of 6.14, a remaining at 1 µM [1] of 20.7% and a Vd [2] of 1.4 L/kg. For the same compound, the half-life [3] was 55 min, the bioavailability [4] was 8.74% and the half-life [5] was 51.4 min. It also gave a Cmax [6] of 24233 nM/ml, an AUClast [7] of 18137 nM.hr/ml and a solubility kinetic [8] of 185 µM (≈ 71.5 µg/mL). It also gave a logD [9] of 1.36, a CLint scaled at […], 1 µM [10] of 298 mL/min/kg and a CLint scaled at […], 1 µM [11] of 50 mL/min/kg. For the same compound, the CLint scaled at […], 1 µM [12] was 19.3 mL/min/kg, the fraction unbound at 4 h, up to 10 µM [13] was 0.554 and the fraction unbound at 4 h, up to 10 µM [14] was 0.376. The fraction unbound at 4 h, up to 10 µM [15] was 0.522, the pIC50 (Cytochrome P450 2B6) was < 4.00 and the pIC50 (Cytochrome P450 2C9) was < 4.00. The pIC50 (Cytochrome P450 2C19) was < 4.00, the pIC50 (Cytochrome P450 3A4) was < 4.00 and the half-life [16] was 52.2 min. It also gave a half-life [17] of 121 min, a Cmax [18] of 9553 nM/ml and an AUClast [19] of 9614 nM.hr/ml. For the same compound, the clearance [20] was 9.29 mL/min/kg, the TGI (H22 [21]) was “Dose-dependent-effect” and the inhibition in vivo at 50 mg/kg (H22 [22]) was 57.5%. For the same compound, the “T>IC50” value [23] was ~3.5 h, the “T>IC50” value [24] was ~5.5 h and the Activity [25] was “Non-toxic”. The Activity (4T1-Luc [26]) was “Active”, the Activity (4T1-Luc [27]) was “Active” and the Activity (4T1-Luc [28]) was “Active”. The Activity (4T1-Luc [29]) was “Active”, the Drug metabolism [30] was “metabolite_detected” and the Drug metabolism [31] was “metabolite_detected”. The Drug metabolism [32] was “metabolite_detected”, the Drug metabolism [33] was “metabolite_detected” and the Drug metabolism [34] was “metabolite_detected”. The Drug metabolism [35] was “metabolite_detected”, the Drug metabolism [36] was “metabolite_detected” and the Activity [37] was < 50%. For the same compound, the Activity [38] was “Non-toxic”.
